Laboratory results taken from patent publication US7348330B2, “1-azabicyclo [2,2,2] octan-3-one derivatives” (Aprea AB, priority 2000, dated 2008).

How the values were obtained:
[1] = tested on: KRC/Y renal carcinoma cells (Phe-176 mutant p53); assay: FACS analysis of apoptosis; format: cell-based, human
Method: The percentage of apoptotic cells was detected by FACS analysis as it was described in FIG. 3A.
Cells were placed on 12-well plate at a density of 30000/cm^2 and treated with compounds. After 48 h incubation cells were harvested by trypsinization, fixed with 70% ethanol, treated with RNase A (0.25 mg/ml) and stained with propidium iodide (0.02 mg/ml). Samples were analyzed on a Becton Dickinson FACScan. Data were analyzed by the CellQuest software, version 3.2.1.
Thus, it appears that the defect caused by substitution of the Cys residue at position 176 is irreversible. The substitution of this Cys residue abolishes the binding of a Zn atom which holds together the DNA-binding loops of the p53 core domain. Therefore, the unfolding of this mutant p53 protein is probably too extensive to be restored.

[2] = tested on: human tumor cell lines with different p53 status (p53 null, wild type p53, mutant p53); assay: WST-1 growth suppression, series of tumor cell lines; format: cell-based
Text: In addition, mouse p53 null J3D T-cell lymphoma line was used.

[3] = molecular target: T1, GST-His-175 mutant p53 protein (Homo sapiens, UniProt P04637, R175H); assay: Band shift assay; format: biochemical
T1 construct: made in house
Method: FIG. 7A Lane 1-3, GST-His-175 mutant p53 is unable to bind DNA. […] PAb421 antibody was added to all reaction mixtures. […] Monoclonal antibody PAb421 was added to the reaction mixtures in lanes 2-8; PAb1801 was, added to the reaction mixtures in lanes 9-15.
(§1) The GST-p53 proteins were prepared as described (Selivanova et al., 1997). Band shift assays were performed in binding buffer containing 100 mM HEPES pH 7.5, 50 mM KCl , 1 mg/ml BSA, 0.1% Triton X-100, 2 mM MgCl2 and 1 mM DTT essentially as in (Selivanova et al., 1996).
Substitution of arginin at position 175 causes a gross unfolding of the DNA binding core domain of p53.

[4] = tested on: Saos-2-His-273 cells; assay: WST-1 growth suppression assay; format: cell-based, human
Method: (§2) Saos-2-His-273 cell line stably transfected with construct allowing expression of mutant His-273 p53 in a tetracycline-dependent manner was used for screening (Selivanova et al., 1997). p53 expression was inhibited by incubation of cells with doxycycline (5 μg/ml). Cells were grown in 96-well plates at a density of 3000 cells per well with or without doxycycline and treated with 25 μM of the compounds from the NCI library of low molecular weight (LMW) compounds. After 48 hours of incubation the proliferative cell reagent WST-1 (Roche) was added to the cells. The degree of WST-1 reduction, which reflects cell viability, was measured by microplate reader at λ490 nm according to the manufacturer (Roche).
as §2, with “1997).” for “1997). p53 expression was inhibited by incubation of cells with doxycycline (5 μg/ml).”, “doxycycline. The treatment was done at a concentration of” for “doxycycline and treated with”, “each chemical” for “the compounds”, “is proportional to the” for “reflects”, “by a” for “by”
Saos-2-His-273 cells grown in the presence or absence of doxycycline and parental Saos-2 cells were treated with the structural analogs and analyzed as described above. The effect of structural analogs on cell growth was tested using different concentrations of the compounds, ranging from 2.5 to 25 μM. Compounds MIRA-2, MIRA-3 and PRIMA-2, PRIMA-3 were identified that were able to suppress the growth of Saos-2-His-273 cells expressing mutant p53 (tet−). […] In addition, compounds MIRA-2 and MIRA-3 suppressed the growth of cells in a mutant p53-dependent manner at 10 μM concentration, in contrast to 25 μM of compound MIRA-1 required for the selective effect.

[5] = molecular target: T2, Phe-176 mutant p53 protein (Homo sapiens, UniProt P04637, C176F); assay: Band shift assay, KRC/Y cells; format: biochemical
T2 construct: as a source for endogenous p53 protein; endogenous in cells; host or cells: KRC/Y renal carcinoma cells (cell extract)
Method: as §1

[6] = tested on: Saos-2 cells lacking p53; assay: Colony formation assay; format: cell-based, human; conditions: 5 µM of compound; colonies after 14 days
Text: (§3) Colonies were stained with Giemsa and counted 14 days after seeding.
(§4) The cells were Giemsa stained and scored for the appearance of colonies after 14 days.

[7] = tested on: Saos-2-His-273 cells; assay: Colony formation assay; format: cell-based, human
Text: as §3, §4

[8] = tested on: SKOV-His-175 cells; assay: p53-responsive EGFP reporter; format: cell-based, human
Text: FIG. 9B, mutant p53-dependent activation of the wild-type p53-responsive EGFP reporter in PRIMA-1-treated SKOV-His-175 cells. […] FIG. 9C, MIRA-1 induced wild-type p53-responsive EGFP reporter in SKOV-His-175 cells.
The plasmids encoding the GST-human wild type p53 fusion protein and the GST-human mutant p53 proteins His 175 were described earlier (Selivanova et al., 1996). The p53-EGFP plasmid contains 13 synthetic p53 consensus DNA binding sites in front of the EGFP coding sequence. Transient transfections experiments were performed with Lipofectamine 2000 according to the manufacturer's recommendations (Invitrogen™ Life Technologies, Groningen, The Netherlands).
We also transiently transfected SKOV-His-175 cells with a p53-responsive EGFP reporter.

[9] = tested on: HCT116 colon carcinoma cells that carry wild type p53; assay: Western blot of p53 target genes p21 and MDM2; format: cell-based
[10] = tested on: A431 cells that carry endogenous His-273 mutant p53; assay: p53-responsive lacZ reporter; format: cell-based; conditions: 50 μM for 20 hours

In the case of CCC(=O)OCN1C(=O)C=CC1=O [MIRA-1], the “induction of apoptosis compared to Saos-2-His-273 cells” value ([1]; 50 μM) is reported as “much less prominent”, the “growth suppression of mutant p53-expressing cells versus p53 null and wild type p53 cells” value [2] is reported as “more efficiently” and the “restoration of specific DNA binding” value [3] is reported as “able to restore”. The “concentration at which growth of mutant p53 containing cells is selectively suppressed” value ([4]; tet− vs tet+ and parental Saos-2, 48 hours, 2.5 to 25 μM tested) was 25 µM, the “restoration of specific DNA binding” value [5] was “not capable of restoring” and the “inhibition of colony formation” value [6] was 48%. The “number of colonies, % of untreated control” value ([7]; 5 µM of compound, colonies after 14 days) was 15%, the EGFP reporter expression ([8]; 5μM for 24 hours) was “induction of EGFP was also observed” and the “MDM2 and p21 protein levels” value [9] was “did not cause any significant changes”.
O=C1C2CCN(CC2)C1(CO)CO [PRIMA-1, 2,2-bis(hydroxymethyl)-1-azabicyclo[2,2,2]octan-3-one] was tested, and the “induction of apoptosis compared to Saos-2-His-273 cells” value ([1]; 75 μM) was “much less prominent”, the “growth suppression of mutant p53-expressing cells versus p53 null and wild type p53 cells” value [2] was “more efficiently” and the “growth of cells expressing mutant p53 (growth curves)” value ([4]; mutant p53 expressed) was “completely inhibited growth”. The “growth of cells in the absence of mutant p53 expression” value ([4]; no mutant p53 expression) was “minor reduction in growth rate”, the “doses inhibitory to colony formation in a mutant p53-dependent manner” value ([7]; Saos-2-His-273 vs Saos-2) was 50 to 100 µM and the EGFP reporter expression ([8]; cells expressing mutant p53, 24 hours) was “strong induction of EGFP expression”. The EGFP reporter expression ([8]; doxycycline (p53 off), 24 hours) was “did not express detectable levels of EGFP”, the lacZ reporter induction [10] was “appearance of lacZ-positive cells” and the “MDM2 and p21 protein levels” value [9] was “did not cause any significant changes”.
